The test system of data set [1] is Rauscher virus-induced promyelocytic leukemia cells R453. The data set is described as follows: cell proliferation inhibiting activity against R453 cells. Type of data set: cell-based. Particulars: Mus musculus, read-out: cell proliferation inhibiting activity (GD50 value).
Data set [2] has as its system human myelocytic leukemia cells HL-60. The data set is described as follows: growth inhibiting effect (IG effect) on HL-60. The format is cell-based. Particulars: HL-60, 120 h, 5 day culture, read-out: IG effect on HL-60 GD50.
The subject of a further data set is Saccharomyces cerevisiae. Briefly: antifungal activity, serial dilution method. The format is cell-based. Conditions: Saccharomyces cerevisiae (brewer's yeast); 1% glucose-bouillon agar; read-out: MIC.
The next data set concerns Rhodotorula. The data set is described as follows: antimycotic activity, paper disk inhibition circle. Particulars: 48 h, 8 mm paper disk, 3 mg/ml, 37° C., 2 days, read-out: Growth inhibition Rhodotorula. Type of data set: cell-based. How it is done: (§1) Referring to the antimycotic activity presented in Table 2, Cryptoccoccus neoformans and others were used as the test microbes, a paper disk (8 mm in diameter) was immersed in an aqueous solution of each test compound having a concentration of 3 mg/ml, air dried and placed on an agar medium, then incubation was conducted at 37° C. for 2 days, and the inhibition circle was measured. When the diameter of the inhibition circle was not larger than 8 mm, 8-10 mm, 10-20 mm, or larger than 20 mm, the activity was judged as -, ±, + or ++, respectively.

For another data set, the system named is Hamigera. The data set is described as follows: antimycotic activity, paper disk inhibition circle. Type of data set: cell-based. Particulars: 48 h; 8 mm paper disk, 3 mg/ml, 37° C., 2 days; read-out: Growth inhibition Hamigera. The procedure: as §1
The test system of a further data set is Cryptococcus neoformans. Briefly: antimycotic activity, paper disk inhibition circle. The format is cell-based. Conditions: 48 h, 8 mm paper disk, 3 mg/ml, 37° C., 2 days, read-out: Growth inhibition Cryptococcus. How it is done: as §1
The subject of another data set is CDF1 mice. Briefly: toxicity in CDF1 mice. The format is in vivo, mouse. Conditions: intraperitoneal 100 mg/kg, observation period one week. The procedure:
(§2) The compounds of this invention are of relatively low toxicity. For example, the compound of Example 7 causes no deaths in CDF1 mice even at an intraperitoneal dose of 100 mg/kg (observation period: one week). The hemolytic activity of these compounds is also low in general. For example, in a hemolysis test (with human erythrocytes) by the method of Gottfried et al. [J. Lipid Research, 4, 57 (1963)], the 50% hemolytic concentration of the compound of Example 15 was about 10 μg/ml.

For data set [3], the system named is Tetrahymena pyriformis W strain. Briefly: antiprotozoal activity, broth dilution method. The format is cell-based. Conditions: 28° C., 44-48 hours, pH 7.0, read-out: Growth inhibition MIC Tetrahymena.
The test system of the next data set is Cochliobolus miyabeanus. The data set is described as follows: antifungal activity, serial dilution method. Particulars: Bipolaris oryzae. Type of data set: cell-based.
A further data set relates to Aspergillus niger. The data set is described as follows: antifungal activity, serial dilution method. Type of data set: cell-based. Conditions: Aspergillus niger (black mold); 1% glucose-bouillon agar; read-out: MIC.
The test system of data set [4] is mouse spontaneous myelocytic leukemia cells MI (resistant clone). Briefly: cell proliferation inhibiting activity against MI cells. The format is cell-based. Conditions: read-out: cell proliferation inhibiting activity (GD50 value).
A further data set relates to Botrytis cinerea. The data set is described as follows: antifungal activity, serial dilution method. Type of data set: cell-based. Particulars: Botrytis cinerea (gray mold); 1% glucose-bouillon agar.
Another data set deals with Leptosphaeria salvinii. Briefly: antifungal activity, serial dilution method. Particulars: Nakataea oryzae; Leptosphaeria salvinii (rice stem rot); 1% glucose-bouillon agar; read-out: MIC. The format is cell-based.
A further data set deals with Pyricularia oryzae. Briefly: microbe, parasite or virus in culture. The format is cell-based.
Data set [5] concerns Colletotrichum lagenarium. The data set is described as follows: antifungal activity, serial dilution method. The format is cell-based. Conditions: Colletotrichum orbiculare; Colletotrichum lagenarium (cucumber anthracnose); 1% glucose-bouillon agar; read-out: MIC.
Data set [6] can be described thus: hemolysis test by the method of Gottfried et al. Type of data set: cell-based, human. Particulars: human, erythrocytes. The procedure:
as §2

Another data set relates to human erythrocytes. The data set is described as follows: hemolysis test by the method of Gottfried et al. The format is cell-based. Particulars: 5% human albumin, relative to without albumin. The procedure: as §2
For the next data set, the system named is Sclerotinia sclerotiorum. Briefly: antifungal activity, serial dilution method. The format is cell-based. Conditions: Sclerotinia sclerotiorum (kidney bean stem rot); 1% glucose-bouillon agar.
The test system of a further data set is Penicillium. Briefly: antifungal activity, serial dilution method. Type of data set: cell-based, Penicillium niger. Particulars: Penicillium niger (blue mold); 1% glucose-bouillon agar; read-out: MIC.

Consider 2 compounds from patent US4551532A, “Ethylene glycol derivatives having anti-protozoan, anti-fungal and anti-tumor activity” (priority 1980, dated 1985).

For the compound `CCCCCCCC/C=C\CCCCCCCCOCCOCCOP(=O)([O-])OCC[N+](C)(C)C` [Example 7, 3,6-Dioxatetracos-15(Z)-enyl 2-trimethylammonioethyl phosphate], the IC50 was 2 to 3 µg/mL in [1], 1 to 2 µg/mL in [2] and 8 to 11 µg/mL in [4]. In addition, the MIC is 12.5 µg/mL in the data set with Saccharomyces cerevisiae; 0.4 µg/mL in data set [3]; 25 µg/mL against Cochliobolus miyabeanus; 25 µg/mL with Aspergillus niger; 6.25 µg/mL in the data set with Botrytis cinerea; 25 µg/mL in the data set on Leptosphaeria salvinii. Besides, the results for the MIC (in the data set with Pyricularia oryzae; in [5]) were 3.12 µg/mL and 25 µg/mL, respectively. Further, the values for the zone of inhibition at 3000 µg/mL in the data set with Rhodotorula, in the data set on Hamigera and in the data set with Cryptococcus neoformans were 10 to 20 mm, over 20 mm and over 20 mm, respectively. Besides, the deaths entry with CDF1 mice is recorded as “no deaths”.

Turning to `CCCCCCCCCCCCOCCOCCOP(=O)([O-])OCC[n+]1ccccc1` [Example 15, 2-[2-Dodecyloxy)ethoxy]ethyl 2-pyridinioethyl phosphate], the 50% haemolytic concentration (HC50) in data set [6] was about 10 µg/mL. Further, the “50% hemolytic concentration in the presence of human albumin” value in the data set on human erythrocytes is given as “several times as high”. The MIC was 25 µg/mL against Sclerotinia sclerotiorum; 50 µg/mL in the data set on Saccharomyces cerevisiae; 12.5 µg/mL in the data set with Penicillium; over 4 µg/mL in data set [3]; 25 µg/mL with Cochliobolus miyabeanus; 25 µg/mL with Aspergillus niger. Besides, the MIC came to 12.5 µg/mL against Botrytis cinerea, 25 µg/mL with Leptosphaeria salvinii, 25 µg/mL against Pyricularia oryzae and 12.5 µg/mL in data set [5]. Moreover, the zone of inhibition at 3000 µg/mL with Rhodotorula was 10 to 20 mm; with Hamigera, 10 to 20 mm; with Cryptococcus neoformans it was over 20 mm.
